Source: US20210198201A1, “Orally Active Melanocortin Receptor-4 Compounds” (Palatin Technologies, Inc., priority 2018, published 2021)

What was measured:
[1] = biological target: T1, MC1r (Homo sapiens, UniProt Q01726); assay: Competitive inhibition binding assay, MC1r; conditions: binding studies
T1 construct: expressed in transfected cells; host or cells: HEK-293 (membrane homogenates)
Method: (§1) A competitive inhibition binding assay is performed using membrane homogenates prepared from HEK-293 cells that express recombinant hMC1ra, hMC4r, hMC3r, or hMC5r, and from B16-F10 mouse melanoma cells (containing endogenous MC1r). In the examples that follow, all values are for human recombinant receptors unless otherwise noted. Assays are performed in 96 well GF/B Millipore multiscreen filtration plates (MAFB NOB10) pre-coated with 0.5% bovine serum albumin (Fraction V). […] After incubation for 60 to 90 minutes at 37° C., the assay mixture is filtered and the membranes washed three times with ice-cold buffer. Filters are dried and counted in a gamma counter for bound radioactivity.
(§2) Maximal specific binding (100%) is defined as the difference in radioactivity (cpm) bound to cell membranes in the absence and presence of 1 μM NDP-α-MSH. […] Each assay is conducted in duplicate or triplicate and the actual mean values are described, with results less than 0% reported as 0%. Ki values for test compounds are determined using Graph-Pad Prism® curve-fitting software.

[2] = Plasma concentrations following oral administration in Sprague-Dawley rats; format: in vivo, rat; conditions: oral 30 mg/kg
Method: Plasma samples were measured at 15 minutes (2 animals) and 30 minutes, 1 hour, 2 hours, 4 hours, 8 hours and 24 hours (3 animals) post oral administration.

[3] = biological target: T2, MC4r (Homo sapiens, UniProt P32245); assay: Binding of iodine-125 labeled NDP-α-MSH, human recombinant CHO cells, hMC4r; set-up: expressed in transfected cells; host or cells: CHO
Method: (§3) Melanocortin receptor binding and function of Compound 7.1 was tested. Ki binding values (nM) were calculated utilizing the percent inhibit of the binding of iodine-125 labeled NDP-α-MSH against B16-F1 cells for mMC1r, and human recombinant CHO cells for hMC3r, hMC4r and hMC5r, with the inhibition constant calculated using the Cheng Prusoff equation. Functional results (EC50 and efficacy) were calculated utilizing cAMP assays with NDP-α-MSH for mMC1r, hMC3r and hMC4r, ACTH for hMC2r, and α-MSH for hMC5r for agonist measures, with the same target cells for melanocortin receptors mMC1r, hMC3r, hMC4r and hMC5r, and human recombinant Cloudman M3 cells for hMC2r.

[4] = biological target: T3, hMC3r (Homo sapiens, UniProt P41968); assay: Binding of iodine-125 labeled NDP-α-MSH, human recombinant CHO cells, hMC3r
T3 construct: expressed in transfected cells; host or cells: CHO
Method: as §3

[5] = tested on: Male mice homozygous for the obese spontaneous mutation, Lep^ob; assay: Oral administration in leptin-deficient obese mice, body weight; format: in vivo, mouse; conditions: 30 mg/kg twice daily for six days
Method: Male mice homozygous for the obese spontaneous mutation, Lep^ob, with resulting leptin protein deficiency, were individually housed with free access to feed and drinking water. All animals were sham-dosed twice daily for five days prior to initial drug administration, utilizing a vehicle dose of 3.2% mannitol and […] tris(hydroxymethyl)aminomethane at pH 7.4. On day 6 a cohort of the mice received compound 7.1 dissolved into the vehicle twice daily for six consecutive days at a dose of 30 mg/kg. Body weight of animals was measured daily, with data analyzed as the percent change from baseline of each individual animal, where baseline was defined as the average weight during the first three days of sham dosing. The averaged percent change from baseline of a vehicle group was then subtracted from each value to correct for continued weight gain or other study-wide factors. The change in body weight is shown in FIG. 3 starting on study day 1, the first day of administration of compound 7.1.

[6] = biological target: T4, mMC1r (Mus musculus, UniProt Q01727); assay: Binding of iodine-125 labeled NDP-α-MSH, B16-F1 cells, mMC1r
T4 construct: endogenous in cells; host or cells: B16-F1
Method: as §3

[7] = tested on: C57BL/6 male DIO mice; assay: Body weight and food intake in vivo study in diet induced obese mice; set-up: species or system mouse
Method: Compound 7.1 was assessed in a body weight and food intake in vivo study in diet induced obese […] mice. C57BL/6 male DIO mice were utilized, that were 17 weeks of age on arrival. Animals were pre-conditioned on a high-fat diet for 11 weeks by Jackson Labs. […] Animals were single housed within a limited access rodent facility, and provided ad libitum with a commercial rodent diet and free access to drinking water. Animals were randomized into five groups, a vehicle group, three dose levels of compound 7.1 (3 mg/kg, 10 mg/kg and 30 mg/kg), and Peptide A, a positive control cyclic peptide of the formula Ac-Arg-cyclo(Orn-Asn-D-Phe-Arg-Trp-Glu)-NH2. Following three days of sham dosing, animals were dosed for three days, with vehicle or Compound 7.1 dosed orally once daily at within one hour of lights out in the AM, and Peptide A dosed by subcutaneous injection twice daily within one hour before lights out and six hours after lights out. Body weights were measured one hour prior to lights out, and feed weights were measured both one hour prior to lights out and six hours post lights out.
*p<0.05 vs. sham (vehicle control) using two-way ANOVA followed by Dunnett's post-test.
**p<0.01 vs sham (vehicle control) using two-way ANOVA followed by Dunnett's post-test.

[8] = biological target: T2, MC4r; assay: Competitive inhibition binding assay, MC4r; set-up: expressed in transfected cells; host or cells: HEK-293 (membrane homogenates); conditions: binding studies
Method: as §1, §2
Competitive Binding Assay Using Eu-NDP-α-MSH. Alternatively, a competitive inhibition binding assay is performed employing Eu-NDP-α-MSH (PerkinElmer Life Sciences catalog No. AD0225) with determination by time-resolved fluorometry (TRF) of the lanthanide chelate. […] After incubation for 90 minutes at 37° C., the reaction was stopped by filtration over Acro Well 96-well filter plates (Pall Life Sciences). The filter plates were washed 4 times with 200 μL of ice-cold phosphate-buffered saline. DELFIA Enhancement solution (PerkinElmer Life Sciences) was added to each well. The plates were incubated on a shaker for 15 minutes and read at 340 nm excitation and 615 nm emission wavelengths. Each assay was conducted in duplicate and mean values were utilized. Ki values were determined by curve-fitting with Graph-Pad Prism® software using a one-site fixed-slope competition binding model.

[9] = tested on: MC4r (−/−) mice; assay: Oral administration in MC4r knockout mice, feed intake and body weight; format: in vivo, mouse
Method: Feed intake and body weight was evaluated in MCr4 knockout (MC4r−/−) mice (Jackson Laboratories) compared to C57Bl/6 DIO mice. […] Feed weights were taken at time 0, 2, 6 and 24 hours post lights out. […] The change in body weight is shown in FIG. 4 starting on study day 5, the first day of administration of compound 7.1. […] Additionally, there was a statistically significant mean difference, 2.8%, 95% Cl (1.281, 4.253), and p value <0.0001 between DIO mice receiving compound 7.1 and MC4r (−/−) receiving compound 7.1.

T2 sequence (P32245 whole entry): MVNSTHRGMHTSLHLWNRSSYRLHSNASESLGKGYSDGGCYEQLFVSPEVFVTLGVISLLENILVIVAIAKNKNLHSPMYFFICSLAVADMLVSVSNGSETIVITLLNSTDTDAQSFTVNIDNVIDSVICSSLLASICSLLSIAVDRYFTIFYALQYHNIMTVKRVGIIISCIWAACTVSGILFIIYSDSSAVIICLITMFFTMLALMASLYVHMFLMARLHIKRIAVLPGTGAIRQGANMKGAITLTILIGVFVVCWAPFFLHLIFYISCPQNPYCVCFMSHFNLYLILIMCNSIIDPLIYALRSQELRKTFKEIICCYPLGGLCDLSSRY
T1 sequence (Q01726 whole entry): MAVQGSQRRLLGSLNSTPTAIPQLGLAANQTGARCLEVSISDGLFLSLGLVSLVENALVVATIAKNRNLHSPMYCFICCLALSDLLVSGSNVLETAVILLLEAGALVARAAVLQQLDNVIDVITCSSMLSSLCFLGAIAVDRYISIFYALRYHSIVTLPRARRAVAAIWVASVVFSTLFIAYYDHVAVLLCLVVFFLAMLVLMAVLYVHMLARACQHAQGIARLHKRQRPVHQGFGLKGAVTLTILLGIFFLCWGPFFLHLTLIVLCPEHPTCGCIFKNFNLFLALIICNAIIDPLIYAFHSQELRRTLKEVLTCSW
T3 sequence (P41968 whole entry): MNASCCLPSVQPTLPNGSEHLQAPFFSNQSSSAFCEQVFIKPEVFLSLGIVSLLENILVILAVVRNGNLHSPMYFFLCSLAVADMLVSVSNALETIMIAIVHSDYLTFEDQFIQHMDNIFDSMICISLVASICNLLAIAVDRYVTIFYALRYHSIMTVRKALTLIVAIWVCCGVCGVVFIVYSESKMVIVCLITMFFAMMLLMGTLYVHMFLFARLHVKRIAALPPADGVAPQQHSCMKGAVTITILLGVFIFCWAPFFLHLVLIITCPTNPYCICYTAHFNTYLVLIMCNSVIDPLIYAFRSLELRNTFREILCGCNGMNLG
T4 sequence (Q01727 whole entry): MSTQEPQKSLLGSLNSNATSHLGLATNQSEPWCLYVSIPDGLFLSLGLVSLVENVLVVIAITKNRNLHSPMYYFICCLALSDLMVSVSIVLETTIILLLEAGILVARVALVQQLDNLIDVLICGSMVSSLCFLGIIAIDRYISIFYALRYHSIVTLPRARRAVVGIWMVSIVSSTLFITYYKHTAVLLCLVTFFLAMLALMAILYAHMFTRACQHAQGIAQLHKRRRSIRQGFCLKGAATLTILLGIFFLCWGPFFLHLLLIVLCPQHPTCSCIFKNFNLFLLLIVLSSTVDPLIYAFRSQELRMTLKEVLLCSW

CC(=O)N1CCC(N(CC(C)C)N2CCN(C(=O)[C@@H](Cc3ccc(Cl)cc3)NC(=O)C(C)(C)N)CC2)CC1 [Compound 7.1, N-[(1R)-2-[4-[(1-acetyl-4-piperidyl)-isobutyl-amino]piperazin-1-yl]-1-[(4-chlorophenyl)methyl]-2-oxo-ethyl]-2-amino-2-methyl-propanamide]
Ki [1]: 200 nM
Tax [2]: 2 h
Cmax ([2]; rat, plasma): 780 ng/mL
half-life ([2]; rat, plasma, read-out: terminal half-life (converted)): 3.94 h
Ki [3]: 14 nM
Ki [4]: 1300 nM
decrease in body weight compared to vehicle controls [5]: 4.8%
Ki [6]: 93 nM
effect on body weight (in words) ([7]; 3 mg/kg, day 3): body weight loss
effect on feed intake at 24 hours post lights out (in words) ([7]; 30 mg/kg, entirety of the study, compared with sham animals): significantly inhibited feed intake
effect on body weight (in words) ([7]; daily treatment at 10 mg/kg and 30 mg/kg, day 1 to 3): significant body weight loss
Ki [8]: 5 nM
notable mean percentage body weight change difference between treated group and vehicle (in words) ([9]; 30 mg/kg twice daily): not
food consumption vs vehicle only (in words) ([9]; 30 mg/kg twice daily oral gavage): no differences
